Experimental data taken from patent publication US12358949B2, “Defensin fragments for use in therapy or prophylaxis” (priority 2019, dated 2025).
“Also recorded” adds a separate entry of the source. Where a SMILES comes first, the peptide text is derived from it.

Legend:
[1] = test system: commensal bacteria; assay: Radial diffusion assay, HD-5 fragments; type: cell-based; settings: 4 μg fragment, 2 μg full-length peptide; commensal bacteria (FIG. 3)
Description: In the RDA 2 μg of the full length and 4 μg of each fragment were used. An inhibition zone greater than 5 mm was determined as high activity, between 2.5 and 5 mm as low activity and 2.5 mm were the diameter of the punched well and therefore no activity.
(§1) Antimicrobial activity of all peptides was tested with a modified radial diffusion assay from Lehrer et al^12 Shortly described, log-phase bacteria grew (anaerobic bacteria with AnaeroGen, Oxoid in anaerobic jars) in liquid tryptic soy broth (TSB) (Becton Dickinson). After several wash steps in 10 mM sodium phosphate buffer pH 7.4, 4×10^6 cfu/ml was used per assay. To measure the antibacterial effect of the identified peptide fragments, the bacteria were incubated in 10 mM sodium phosphate (pH 7.4) containing 0.3 mg/ml TSB powder and 1% (w/v) low EEO-agarose (Applichem). Peptide fragments were then pipetted into punched wells and allowed to diffuse for 3 hours at 37° C. After that a nutrient rich gel with 6% TSB (w/v) and 1% agarose in 10 mM sodium phosphate buffer was poured on top of the first gel. After 24 hours the inhibition zones were measured. […] All experiments were carried out at least three times.

[2] = test system: pathogenic bacteria; assay: Radial diffusion assay, HD-5 fragments; type: cell-based; settings: pathogenic Gram-positive and Gram-negative bacteria (FIG. 4)
Description: A heat map system with high activity (inhibition zone in the RDA>5 mm), low activity (2.5 to 5 mm) and no activity (2.5 mm) was used.
as §1

| Compound | antimicrobial activity in radial diffusion assay [1] | antimicrobial activity in radial diffusion assay [2] |
| --- | --- | --- |
| CATRESLSGVCEISGRLY (listed as Homo sapiens) [HD-510-27, HD-5 fragment 10-27] | did not exhibit measurable activity | inactive |
| LYRLCCR (listed as Homo sapiens) [HD-526-32, HD-5 fragment 26-32] | exhibited antimicrobial properties, albeit to a lesser extent than HD-51-9 | only minimally active or more selective in terms of different strains |
| CC[C@H](C)[C@H](NC(=O)[C@H](CCC(=O)O)NC(=O)[C@H](CS)NC(=O)[C@@H](NC(=O)CNC(=O)[C@H](CO)NC(=O)[C@H](CC(C)C)NC(=O)[C@H](CO)NC(=O)[C@H](CCC(=O)O)NC(=O)[C@H](CCCNC(=N)N)NC(=O)[C@@H](NC(=O)[C@H](C)NC(=O)[C@@H](N)CS)[C@@H](C)O)C(C)C)C(=O)N[C@@H](CO)C(=O)NCC(=O)N[C@@H](CCCNC(=N)N)C(=O)N[C@@H](CC(C)C)C(=O)N[C@@H](Cc1ccc(O)cc1)C(=O)N[C@@H](CCCNC(=N)N)C(=O)N[C@@H](CC(C)C)C(=O)N[C@@H](CS)C(=O)N[C@@H](CS)C(=O)N[C@@H](CCCNC(=N)N)C(=O)O [HD-510-32] (H-CATRESLSGVCEISGRLYRLCCR-OH; N-terminus and C-terminus assumed) | – | only minimally active or more selective in terms of different strains; also recorded: limited to the two Gram-positive bacteria |
| CC[C@H](C)[C@H](NC(=O)[C@H](CCC(=O)O)NC(=O)[C@H](CS)NC(=O)[C@@H](NC(=O)CNC(=O)[C@H](CO)NC(=O)[C@H](CC(C)C)NC(=O)[C@H](CO)NC(=O)[C@@H](N)CCC(=O)O)C(C)C)C(=O)N[C@@H](CO)C(=O)NCC(=O)N[C@@H](CCCNC(=N)N)C(=O)N[C@@H](CC(C)C)C(=O)N[C@@H](Cc1ccc(O)cc1)C(=O)N[C@@H](CCCNC(=N)N)C(=O)N[C@@H](CC(C)C)C(=O)N[C@@H](CS)C(=O)N[C@@H](CS)C(=O)N[C@@H](CCCNC(=N)N)C(=O)O [HD-514-32] (H-ESLSGVCEISGRLYRLCCR-OH; N-terminus and C-terminus assumed) | – | inactive |
